Source: ChEMBL document CHEMBL1146413, “New polyhalogenated monoterpenes from the sea hare Aplysia punctata” (1997)
Values after ≈ are worked out from the molar mass of the structure shown.

Key:
Assay type in all cases: functional
Details in all cases: read-out: ED50 (the source's name)
A549 = assay: Cytotoxicity against human A549 cells
SK-MEL-28 = assay: Cytotoxicity against human SK-MEL-28 cells
HT-29 = assay: Cytotoxicity against human HT-29 cells
P388 = assay: Cytotoxicity against mouse P388 cells

SMILES: CC(=O)OCCC(C)C(=O)CC/C(=C/Cl)C(Cl)Cl (configuration not stated)
- EC50 (A549): 1.5 µg/mL (≈ 4.75 µM)
- EC50 (SK-MEL-28): 1.5 µg/mL (≈ 4.75 µM)
- EC50 (HT-29): 2.5 µg/mL (≈ 7.92 µM)
- EC50 (P388): 2.5 µg/mL (≈ 7.92 µM)

SMILES: CC(=O)OCC/C(C)=C(Cl)/C=C/C(C)(Cl)CBr (configuration not stated)
- EC50 (A549): 1.5 µg/mL (≈ 4.36 µM)
- EC50 (SK-MEL-28): 1.5 µg/mL (≈ 4.36 µM)
- EC50 (HT-29): 2.5 µg/mL (≈ 7.27 µM)
- EC50 (P388): 2.5 µg/mL (≈ 7.27 µM)

SMILES: CC(=O)OCCC(C)C(=O)CC/C(=C\Cl)C(Cl)Cl (configuration not stated)
- EC50 (A549): 1.5 µg/mL (≈ 4.75 µM)
- EC50 (SK-MEL-28): 1.5 µg/mL (≈ 4.75 µM)
- EC50 (HT-29): 2.5 µg/mL (≈ 7.92 µM)
- EC50 (P388): 2.5 µg/mL (≈ 7.92 µM)
